Experimental data taken from US11548900B2, “Oxazino-quinazoline and oxazino-quinoline type compound, preparation method and uses thereof” (BEIJING SCITECH-MQ PHARMACEUTICALS LIMITED, priority 2018, dated 2023).

Columns and labels:
HCC827 cells = test: Inhibition of cell proliferation, HCC827 (CCK-8, 72 h); format: cell-based; conditions: Homo sapiens, 72 h incubation
Procedure, shortened: (§1)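 BT474 and HCC827 seeded at 10,000 and 3000 cells/well respectively, cultured overnight, then exposed to 10-point 3-fold compound dilutions (top stock 10 mM; 0.25% DMSO final) for 72 h. Viability by CCK-8, OD450; survival normalised to untreated and cell-free blanks, IC50 from curve fit.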

HER2 kinase = HER2 kinase (Homo sapiens (Human), UniProt P04626); test: Inhibition of HER2 kinase activity (ULight-labeled PolyGT substrate); format: biochemical; conditions: HER2 kinase 10 nM, ATP 10 μM, 2 hours
Chain of HER2 kinase (P04626 23-1255): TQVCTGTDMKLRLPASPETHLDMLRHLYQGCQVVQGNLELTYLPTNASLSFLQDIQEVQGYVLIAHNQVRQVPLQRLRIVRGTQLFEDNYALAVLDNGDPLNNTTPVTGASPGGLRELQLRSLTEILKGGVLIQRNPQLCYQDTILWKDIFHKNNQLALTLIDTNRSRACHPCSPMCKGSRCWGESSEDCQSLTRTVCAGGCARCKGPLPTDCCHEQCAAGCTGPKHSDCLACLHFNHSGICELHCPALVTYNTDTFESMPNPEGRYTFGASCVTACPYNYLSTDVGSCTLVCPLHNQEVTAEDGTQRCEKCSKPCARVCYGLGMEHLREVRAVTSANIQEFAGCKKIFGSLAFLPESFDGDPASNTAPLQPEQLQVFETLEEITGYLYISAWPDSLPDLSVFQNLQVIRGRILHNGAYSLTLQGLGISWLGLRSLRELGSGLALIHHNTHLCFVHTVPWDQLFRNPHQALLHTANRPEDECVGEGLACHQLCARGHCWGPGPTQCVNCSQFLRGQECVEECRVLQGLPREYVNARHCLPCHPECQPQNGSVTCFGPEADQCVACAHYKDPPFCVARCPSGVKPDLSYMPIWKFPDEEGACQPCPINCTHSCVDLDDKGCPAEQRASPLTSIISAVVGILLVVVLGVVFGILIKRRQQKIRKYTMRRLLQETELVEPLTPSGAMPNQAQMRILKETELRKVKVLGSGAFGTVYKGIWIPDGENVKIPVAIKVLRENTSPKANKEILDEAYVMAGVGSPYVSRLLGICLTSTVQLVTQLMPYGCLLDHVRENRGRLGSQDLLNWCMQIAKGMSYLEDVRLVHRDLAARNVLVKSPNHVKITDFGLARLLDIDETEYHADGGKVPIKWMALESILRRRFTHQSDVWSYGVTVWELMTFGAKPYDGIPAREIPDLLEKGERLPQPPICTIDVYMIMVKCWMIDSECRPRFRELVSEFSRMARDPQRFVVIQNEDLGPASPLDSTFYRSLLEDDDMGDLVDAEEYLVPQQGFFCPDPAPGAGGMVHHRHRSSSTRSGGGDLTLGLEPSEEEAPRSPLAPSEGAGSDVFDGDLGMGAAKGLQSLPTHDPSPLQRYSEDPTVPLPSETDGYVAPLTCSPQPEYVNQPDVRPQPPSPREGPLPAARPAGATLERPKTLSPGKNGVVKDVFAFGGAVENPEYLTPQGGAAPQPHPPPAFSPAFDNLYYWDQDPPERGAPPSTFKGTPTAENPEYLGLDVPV
Procedure, shortened: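 Eleven-point 3-fold dilutions (0.042 nM–2.5 μM final, 1% DMSO) tested in duplicate against 10 nM HER2 with 100 nM ULight-labelled PolyGT and 10 μM ATP. Reaction ran 2 h at RT after 5 min pre-incubation; 665/615 nm TR-FRET ratio used to derive inhibition and IC50.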

BT474 cells = test: Inhibition of cell proliferation, BT474 (CCK-8, 72 h); format: cell-based; conditions: Homo sapiens, BT-474, 72 h incubation
Procedure, shortened: as §1

EGFR kinase = EGFR kinase (Homo sapiens (Human), UniProt P00533); test: Inhibition of EGFR kinase activity (ULight-labeled JAK-1 (Tyr1023) peptide substrate); format: biochemical; conditions: EGFR kinase 0.35 nM, ATP 150 μM, 2 hours
Chain of EGFR kinase (P00533 25-1210): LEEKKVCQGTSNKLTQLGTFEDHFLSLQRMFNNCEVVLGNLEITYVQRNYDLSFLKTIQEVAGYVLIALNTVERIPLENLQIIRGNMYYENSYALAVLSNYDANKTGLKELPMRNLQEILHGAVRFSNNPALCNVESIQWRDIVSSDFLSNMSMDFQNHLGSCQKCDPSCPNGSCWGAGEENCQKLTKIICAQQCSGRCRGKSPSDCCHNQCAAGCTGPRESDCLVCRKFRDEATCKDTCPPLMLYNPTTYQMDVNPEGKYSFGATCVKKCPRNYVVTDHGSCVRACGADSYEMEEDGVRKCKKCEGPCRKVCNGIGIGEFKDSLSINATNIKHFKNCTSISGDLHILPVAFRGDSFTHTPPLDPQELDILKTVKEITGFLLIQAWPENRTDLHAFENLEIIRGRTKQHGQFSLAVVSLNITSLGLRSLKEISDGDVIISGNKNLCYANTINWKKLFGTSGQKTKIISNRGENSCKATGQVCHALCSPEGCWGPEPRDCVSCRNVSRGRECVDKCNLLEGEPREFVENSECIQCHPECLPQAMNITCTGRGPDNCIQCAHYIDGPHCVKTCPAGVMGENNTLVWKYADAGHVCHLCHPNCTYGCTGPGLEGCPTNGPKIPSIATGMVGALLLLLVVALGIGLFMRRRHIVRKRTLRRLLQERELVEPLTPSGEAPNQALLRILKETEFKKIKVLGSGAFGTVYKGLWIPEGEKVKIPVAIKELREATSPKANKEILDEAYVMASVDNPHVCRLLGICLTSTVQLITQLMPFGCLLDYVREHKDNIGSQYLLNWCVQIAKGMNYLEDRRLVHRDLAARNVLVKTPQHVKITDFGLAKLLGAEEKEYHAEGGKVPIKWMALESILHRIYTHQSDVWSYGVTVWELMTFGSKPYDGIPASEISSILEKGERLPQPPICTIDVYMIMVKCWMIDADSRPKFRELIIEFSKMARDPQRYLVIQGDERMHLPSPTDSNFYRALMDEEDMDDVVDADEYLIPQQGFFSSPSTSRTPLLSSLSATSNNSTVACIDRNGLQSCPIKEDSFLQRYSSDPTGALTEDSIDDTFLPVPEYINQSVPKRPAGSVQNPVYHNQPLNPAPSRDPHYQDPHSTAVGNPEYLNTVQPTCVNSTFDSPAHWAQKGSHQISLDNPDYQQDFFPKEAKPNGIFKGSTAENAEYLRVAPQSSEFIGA
Procedure, shortened: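 TR-FRET kinase assay: 0.35 nM EGFR, 150 μM ATP, 100 nM substrate, 2 h at room temperature in the dark after 5 min enzyme-compound preincubation, 1% DMSO. Compounds tested as 11-point 3-fold series, 2.5 μM to 0.042 nM final, duplicate; IC50 from 665/615 nm ratio-based inhibition.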

| IC50 (HCC827 cells) [nM] | IC50 (HER2 kinase) [nM] | IC50 (BT474 cells) [nM] | IC50 (EGFR kinase) [nM] | SMILES |
| --- | --- | --- | --- | --- |
| 50 to 500 | ≤ 50 | ≤ 50 | ≤ 50 | CN(C/C=C/C(=O)N1CCOc2c1ccc1ncnc(Nc3ccc(OCc4ccccn4)c(Cl)c3)c21)C1CCC1 [Example 110, (E)-1-(10-((3-chloro-4-(pyridin-2-ylmethoxy)phenyl)amino)-2,3-dihydro-4H-[1,4]oxazino[2,3-f]quinazolin-4-yl)-4-(cyclobutyl(methyl)amino)but-2-en-1-one] |
| 500 to 5000 | ≤ 50 | ≤ 50 | ≤ 50 | CC(C)N(C)C/C=C/C(=O)N1CCOc2c1ccc1ncnc(Nc3ccc(OCc4ccccn4)c(Cl)c3)c21 [Example 111, (E)-1-(10-((3-chloro-4-(pyridin-2-ylmethoxy)phenyl)amino)-2,3-dihydro-4H-[1,4]oxazino[2,3-f]quinazolin-4-yl)-4-(isopropyl(methyl)amino)but-2-en-1-one] |
